Assay [1] has as its target T1, human Adenosine A1 receptor (Homo sapiens, UniProt P30542).
T1 sequence (P30542 1-326): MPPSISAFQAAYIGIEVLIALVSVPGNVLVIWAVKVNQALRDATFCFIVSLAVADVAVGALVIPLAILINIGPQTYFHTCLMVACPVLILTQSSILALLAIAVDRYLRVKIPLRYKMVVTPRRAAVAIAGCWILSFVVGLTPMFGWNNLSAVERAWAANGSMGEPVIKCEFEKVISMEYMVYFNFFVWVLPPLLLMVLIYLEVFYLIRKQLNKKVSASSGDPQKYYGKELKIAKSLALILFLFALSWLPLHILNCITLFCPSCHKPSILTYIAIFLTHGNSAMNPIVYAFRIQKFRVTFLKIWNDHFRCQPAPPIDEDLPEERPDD
Description: Adenosine receptor TR-FRET binding assay (CA200645 displacement), A1. A general note: TR-FRET usually uses a lanthanide donor and a delayed reading to cut background.

Assay [2] addresses T2, human Adenosine A2a receptor (Homo sapiens, UniProt P29274).
T2 construct: expressed in transfected cells; host or cells: CHO cell membranes
In words: Adenosine receptor TR-FRET binding assay (CA200645 displacement), A2a. Conditions: 100 nM CA200645, CHO cell membranes, 2 hours at room temperature.

Assay [3] concerns the target T3, human Adenosine A2b receptor (Homo sapiens, UniProt P29275).
T3 construct: expressed in transfected cells; host or cells: CHO cell membranes
T3 sequence (P29275 1-332): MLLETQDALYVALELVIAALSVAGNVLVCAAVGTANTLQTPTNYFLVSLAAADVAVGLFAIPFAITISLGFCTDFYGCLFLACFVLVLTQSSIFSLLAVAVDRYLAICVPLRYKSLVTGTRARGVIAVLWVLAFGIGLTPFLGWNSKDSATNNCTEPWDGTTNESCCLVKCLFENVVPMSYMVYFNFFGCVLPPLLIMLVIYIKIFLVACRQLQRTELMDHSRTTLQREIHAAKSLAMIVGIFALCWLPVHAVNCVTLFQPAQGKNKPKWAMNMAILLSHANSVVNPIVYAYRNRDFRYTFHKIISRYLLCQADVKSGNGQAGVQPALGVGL
In words: Adenosine receptor TR-FRET binding assay (CA200645 displacement), A2b. Conditions: 30 nM CA200645, CHO cell membranes, 2 hours at room temperature.

Assay [4] deals with T4, human Adenosine A3 receptor (Homo sapiens, UniProt P0DMS8).
T4 sequence (P0DMS8 1-318): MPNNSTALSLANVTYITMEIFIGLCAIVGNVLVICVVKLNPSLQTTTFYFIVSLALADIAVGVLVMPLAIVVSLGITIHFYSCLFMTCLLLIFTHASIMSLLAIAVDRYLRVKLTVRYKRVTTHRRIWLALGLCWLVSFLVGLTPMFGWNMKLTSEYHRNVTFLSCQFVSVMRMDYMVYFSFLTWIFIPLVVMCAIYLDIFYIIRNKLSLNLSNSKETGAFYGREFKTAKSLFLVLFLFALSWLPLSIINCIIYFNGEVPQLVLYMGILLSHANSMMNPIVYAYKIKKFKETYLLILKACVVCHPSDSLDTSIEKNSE
In words: Adenosine receptor TR-FRET binding assay (CA200645 displacement), A3.

Where a name gives a salt, the structure may show the parent alone. Bounds are passed on as bounds.

T2 sequence (P29274 whole entry): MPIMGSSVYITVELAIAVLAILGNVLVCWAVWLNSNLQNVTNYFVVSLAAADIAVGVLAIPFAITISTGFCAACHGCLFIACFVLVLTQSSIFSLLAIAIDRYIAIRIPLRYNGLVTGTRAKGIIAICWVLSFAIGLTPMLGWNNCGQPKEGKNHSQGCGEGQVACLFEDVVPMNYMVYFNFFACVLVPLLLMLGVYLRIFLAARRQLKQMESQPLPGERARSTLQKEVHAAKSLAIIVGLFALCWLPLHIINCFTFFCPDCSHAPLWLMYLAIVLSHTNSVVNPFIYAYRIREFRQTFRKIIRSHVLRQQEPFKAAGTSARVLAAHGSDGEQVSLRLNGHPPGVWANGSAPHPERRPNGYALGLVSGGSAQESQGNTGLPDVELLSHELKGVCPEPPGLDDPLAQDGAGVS

As for `N#Cc1c(-c2ccco2)nn2ccc(NC[C@H]3CCCN3)nc12` [Example 80, 2-(2-furyl)-5-[[(2R)-pyrrolidin-2-yl]methylamino]pyrazolo[1,5-a]pyrimidine-3-carbonitrile hydrochloride], the inhibition constant (Ki) – broadly, the dissociation constant of the complex between target and ligand, obtained from inhibition or displacement – in assay [1] is 988 nM; in assay [2], 155 nM; in assay [3], 4460 nM; in assay [4], above 1000 nM.
In the case of `Cc1cc(-c2c(-c3ccc(F)cc3)nn3ccc(N)nc23)cc(Cl)n1` [Example 88, 3-(2-Chloro-6-methyl-4-pyridyl)-2-(4-fluorophenyl)pyrazolo[1,5-a]pyrimidin-5-amine], the Ki came to 29 nM in assay [1], 35.7 nM in assay [2], 63 nM in assay [3] and 536 nM in assay [4].
With `Cc1cc(-c2c(-c3cccc(C#N)c3)nn3ccc(C(=N)NC(C)(C)C)nc23)cc(Cl)n1` [Example 90, N-tert-Butyl-3-(2-chloro-6-methyl-4-pyridyl)-2-(3-cyanophenyl)pyrazolo [1,5-a]pyrimidine-5-carboxamidine], the Ki in assay [1] is 1840 nM; in assay [2], 12.3 nM; in assay [3] it was 80 nM; in assay [4], above 1000 nM.
On the same counts, the results for `Cc1cc(-c2c(-c3cccc(C#N)c3)nn3ccc(C(=O)NCC4CNC(=O)CO4)nc23)cc(C)n1` (stereo not drawn) [Example 92.5] are 438 nM, 9.2 nM, 17 nM and above 1000 nM.
In the case of `Cc1cc(-c2c(-c3cccc(C#N)c3)nn3ccc(C(=O)NC(C)C4(O)COC4)nc23)cc(C)n1` (stereo not drawn) [Example 92.6], the Ki in assay [1] is 167 nM; in assay [2] it was 0.7 nM; in assay [3], 22 nM; in assay [4], above 1000 nM.
The corresponding values for `Cc1cc(-c2c(-c3cccc(C#N)c3)nn3ccc(C(=O)N4CCC5(CC4)NC(=O)NC5=O)nc23)cc(C)n1` [Example 92.7] are 158 nM, 27.6 nM, 3 nM and above 1000 nM.
Take `Cc1cc(-c2c(-c3cccc(C#N)c3)nn3ccc(C(=O)N[C@H]4COC[C@H]4O)nc23)cc(C)n1` [Example 92.8]: the Ki in assay [1] was 70 nM; in assay [2] it was 0.6 nM; in assay [3], 14 nM; in assay [4] it was above 1000 nM.
As for `Cc1cc(-c2c(-c3cccc(C#N)c3)nn3ccc(C(=O)NC[C@H]4CCC(=O)N4)nc23)cc(C)n1` [Example 92.9], the Ki was 150 nM in assay [1], 1 nM in assay [2], 26 nM in assay [3] and above 1000 nM in assay [4].
As for `Cc1cc(-c2c(-c3cccc(C#N)c3)nn3ccc(C(=O)NCC4CCCNC4=O)nc23)cc(C)n1` (stereo not drawn) [Example 92.15], the Ki came out at 150 nM in assay [1], 0.3 nM in assay [2], 19 nM in assay [3] and 599 nM in assay [4].
On the same counts, the results for `Cc1cc(-c2c(-c3cccc(C#N)c3)nn3ccc(C(=O)NCC4(C)CCC(=O)N4)nc23)cc(C)n1` (stereo not drawn) [Example 92.16] are 232 nM, 0.7 nM, 59 nM and above 1000 nM.
With `Cc1cc(-c2c(-c3cccc(C#N)c3)nn3ccc(C(=O)NCC4(C)NC(=O)NC4=O)nc23)cc(C)n1` (stereo not drawn) [Example 92.17], the inhibition constant Ki in assay [1] is 246 nM; in assay [2] it was 1.1 nM; in assay [3], 28 nM; in assay [4] it was above 1000 nM.
The corresponding values for `Cc1cc(-c2c(-c3cccc(C#N)c3)nn3ccc(C(=O)NCC4(C)CCC(=O)NC4)nc23)cc(C)n1` (stereo not drawn) [Example 92.18] are 28 nM, 0.7 nM, 51 nM and above 1000 nM.
Turning to `Cc1cc(-c2c(-c3cccc(C#N)c3)nn3ccc(C(=O)NCC4CCC(=O)NC4)nc23)cc(C)n1` (stereo not drawn) [Example 92.19], the Ki in assay [1] was 179 nM; in assay [2], 19.2 nM; in assay [3], 115 nM; in assay [4], above 1000 nM.
As for `Cc1cc(-c2c(-c3cccc(C#N)c3)nn3ccc(C(=O)N[C@H]4C[C@](C)(O)C4)nc23)cc(C)n1` [Example 92.20], the inhibitory constant (Ki) in assay [1] is 301 nM; in assay [2] it was 1.2 nM; in assay [3] it was 37 nM; in assay [4] it was above 1000 nM.
On the same counts, the results for `Cc1cc(-c2c(-c3cccc(C#N)c3)nn3ccc(C(=O)N[C@H]4CC[C@@](C)(O)CC4)nc23)cc(C)n1` [Example 92.23] are 1120 nM, 3.4 nM, 35 nM and above 1000 nM.
The corresponding values for `Cc1cc(-c2c(-c3cccc(C#N)c3)nn3ccc(C(=O)NC4CNC(=O)C4)nc23)cc(C)n1` (stereo not drawn) [Example 92.25] are 634 nM, 5.4 nM, 69 nM and above 1000 nM.
Regarding `Cc1cc(-c2c(-c3cccc(C#N)c3)nn3ccc(C(=O)NCC4CNC(=O)C4)nc23)cc(C)n1` (stereo not drawn) [Example 92.26], the inhibition constant Ki in assay [1] is 175 nM; in assay [2], 5.8 nM; in assay [3] it was 22 nM; in assay [4], above 1000 nM.
On the same counts, the results for `Cc1cc(-c2c(-c3cccc(C#N)c3)nn3ccc(C(=O)NC[C@H]4CNC(=O)C4)nc23)cc(C)n1` [Example 92.27] are 210 nM, 6.6 nM, 16 nM and above 1000 nM.
The corresponding values for `Cc1cc(-c2c(-c3cccc(C#N)c3)nn3ccc(C(=O)NC[C@@H]4CNC(=O)C4)nc23)cc(C)n1` [Example 92.28] are 345 nM, 3.2 nM, 64 nM and above 1000 nM.
Take `Cc1cc(-c2c(-c3cccc(C#N)c3)nn3ccc(C(=O)N[C@H]4COC[C@@H]4O)nc23)cc(C)n1` [Example 92.29]: the Ki in assay [1] is 412 nM; in assay [2], 1.9 nM; in assay [3], 34 nM; in assay [4] it was above 1000 nM.
For the compound `Cc1cc(-c2c(-c3cccc(C#N)c3)nn3ccc(C(=O)N[C@@H]4COC[C@@H]4O)nc23)cc(C)n1` [Example 92.30], the Ki in assay [1] was 361 nM; in assay [2] it was 0.8 nM; in assay [3], 36 nM; in assay [4] it was above 1000 nM.
The corresponding values for `Cc1cc(-c2c(-c3cccc(C#N)c3)nn3ccc(C(=O)N[C@@H]4COC[C@H]4O)nc23)cc(C)n1` [Example 92.31] are 333 nM, 2.1 nM, 57 nM and above 1000 nM.
In the case of `Cc1cc(-c2c(-c3cccc(C#N)c3)nn3ccc(C(=O)N[C@@H]4CN(C)C[C@H]4O)nc23)cc(C)n1` [Example 92.32], the Ki in assay [1] was 459 nM; in assay [2], 2.9 nM; in assay [3], 24 nM; in assay [4], above 1000 nM.
The corresponding values for `Cc1cc(-c2c(-c3cccc(C#N)c3)nn3ccc(C(=O)NC[C@@H]4CCC(=O)N4)nc23)cc(C)n1` [Example 92.33] are 652 nM, 13 nM, 57 nM and above 1000 nM.
The corresponding values for `Cc1cc(-c2c(-c3cccc(C#N)c3)nn3ccc(NC(=O)[C@](C)(O)C(F)(F)F)nc23)cc(C)n1` [Example 94.3, (2S)—N-[2-(3-Cyanophenyl)-3-(2,6-dimethyl-4-pyridyl)pyrazolo[1,5-a]pyrimidin-5-yl]-3,3,3-trifluoro-2-hydroxy-2-methyl-propanamide] are 184 nM, 2 nM, 15 nM and above 1000 nM.
In the case of `Cc1cc(-c2c(-c3cccc(C#N)c3)nn3ccc(NC(=O)C(C)(C)C)nc23)cc(Cl)n1` [Example 95, N-[3-(2-Chloro-6-methyl-4-pyridyl)-2-(3-cyanophenyl)pyrazolo[1,5-a]pyrimidin-5-yl]-2,2-dimethyl-propanamide], the Ki is 146 nM in assay [1], 2.7 nM in assay [2], 31 nM in assay [3] and above 1000 nM in assay [4].
With `C=C(C)[C@H](C)NC(=O)c1ccn2nc(-c3cccc(C#N)c3)c(-c3cc(C)nc(C)c3)c2n1` [Example 99, 2-(3-Cyanophenyl)-N-[(1S)-1,2-dimethylallyl]-3-(2,6-dimethyl-4-pyridyl)pyrazolo[1,5-a]pyrimidine-5-carboxamide], the inhibition constant (Ki) in assay [1] was 99 nM; in assay [2], 0.4 nM; in assay [3] it was 35 nM; in assay [4], above 1000 nM.

The record behind these values is US20230203041A1, “ANTAGONISTS OF THE ADENOSINE A2A RECEPTOR” (AdoRx Therapeutics Limited, priority 2020, published 2023).
